Assay results as given in patent US10975077B2 (Novira Therapeutics, Inc., priority 2016, dated 2021).

The compounds below were run on HBV (encapsidated HBV DNA, HepG2.2.15 cells) (assay: HBV replication inhibition assay, BDNA assay in HepG2.2.15 cells). Conditions: Activity in BDNA-assay.
Format: cell-based
Summary of the method: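 Encapsidated HBV DNA in DNase-treated, proteinase K-lysed supernatant was measured by branched DNA after 6 days' compound exposure, refreshed on day 3, of HepG2.2.15 cells in 0.5% DMSO. Signals normalized to DMSO-treated wells; EC50 from nonlinear regression of inhibition against log concentration.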

`CCC(O)C1CN(C)C(=O)c2c3c(nn2C1)CC(C)N(C(=O)Nc1ccc(F)c(C(F)(F)F)c1)C3` [Compound 107_D2, (3R,8R*)—N-(4-fluoro-3-(trifluoromethyl)phenyl)-8-((R)-1-hydroxypropyl)-3,10-dimethyl-11-oxo-1,3,4,7,8,9,10,11-octahydro-2H-pyrido[4′,3′:3,4]pyrazolo[1,5-a][1,4] diazepine-2-carboxamide] and `CCC(O)C1CN(C)C(=O)c2c3c(nn2C1)CC(C)N(C(=O)Nc1ccc(F)c(Br)c1)C3` [Compound 109_D2, (3R,8R*)—N-(3-bromo-4-fluorophenyl)-8-((R)-1-hydroxypropyl)-3,10-dimethyl-11-oxo-1,3,4,7,8,9,10,11-octahydro-2H-pyrido[4′,3′:3,4]pyrazolo[1,5-a][1,4]diazepine-2-carboxamide] fall in the same range of EC50: 1 to 100 nM for the first, 1 to 100 nM for the second.

Work on `CCC(O)C1CN(C)C(=O)c2c3c(nn2C1)CC(C)N(C(=O)Nc1ccc(F)c(C#N)c1)C3` [Compound 108_D1, (3R,8S*)—N-(3-cyano-4-fluorophenyl)-8-((R)-1-hydroxypropyl)-3,10-dimethyl-11-oxo-1,3,4,7,8,9,10,11-octahydro-2H-pyrido[4′,3′:3,4]pyrazolo[1,5-a][1,4]diazepine-2-carboxamide] yielded an EC50 of 1 to 100 nM.
Work on `CCC(O)C1CN(C)C(=O)c2c3c(nn2C1)CC(C)N(C(=O)Nc1ccc(F)c(C#N)c1)C3` [Compound 108_D2, (3R,8R*)—N-(3-cyano-4-fluorophenyl)-8-((R)-1-hydroxypropyl)-3,10-dimethyl-11-oxo-1,3,4,7,8,9,10,11-octahydro-2H-pyrido[4′,3′:3,4]pyrazolo[1,5-a][1,4]diazepine-2-carboxamide] yielded an EC50 of 100 to 500 nM.

Same assay, conditions: Hepatitis B virus, HepG2.2.15, Activity in BDNA-assay

`CN1CC(CN2CCCC2)Cn2nc3c(c2C1=O)CN(C(=O)Nc1ccc(F)c(Cl)c1)CC3` (centres unmarked) [Compound 069, N-(3-chloro-4-fluorophenyl)-10-methyl-11-oxo-8-(pyrrolidin-1-ylmethyl)-1,3,4,7,8,9,10,11-octahydro-2H-pyrido[4′,3′:3,4]pyrazolo[1,5-a][1,4]diazepine-2-carboxamide] and `CN1CCCCn2nc3c(c2C1=O)CN(C(=O)Nc1ccc(F)c(Cl)c1)CC3` [Compound 110, N-(3-chloro-4-fluorophenyl)-11-methyl-12-oxo-3,4,7,8,9,10,11,12-octahydropyrido[4′,3′:3,4]pyrazolo[1,5-a][1,4]diazocine-2 (1H)-carboxamide] fall in the same range of EC50: 1 to 100 nM for the first, 1 to 100 nM for the second.

`CN1CC(CN)Cn2nc3c(c2C1=O)CN(C(=O)Nc1ccc(F)c(Cl)c1)CC3` (centres unmarked) [Compound 070, 8-(aminomethyl)-N-(3-chloro-4-fluorophenyl)-10-methyl-11-oxo-1,3,4,7,8,9,10,11-octahydro-2H-pyrido[4′,3′:3,4]pyrazolo[1,5-a][1,4]diazepine-2-carboxamide] and `CN1CC(CN)Cn2nc3c(c2C1=O)CN(C(=O)Nc1ccc(F)c(C#N)c1)CC3` (centres unmarked) [Compound 095, 8-(aminomethyl)-N-(3-cyano-4-fluorophenyl)-10-methyl-11-oxo-1,3,4,7,8,9,10,11-octahydro-2H-pyrido[4′,3′:3,4]pyrazolo[1,5-a][1,4]diazepine-2-carboxamide] fall in the same range of EC50: 1 to 100 nM for the first, 1 to 100 nM for the second.

Compared with `C[C@@H]1Cc2nn3c(c2CN1C(=O)Nc1cc(Cl)c(F)cc1Br)C(=O)N(CC(F)F)CCC3` [Compound 071, (R)—N-(2-bromo-5-chloro-4-fluorophenyl)-10-(2,2-difluoroethyl)-3-methyl-11-oxo-1,3,4,7,8,9,10,11-octahydro-2H-pyrido[4′,3′:3,4]pyrazolo[1,5-a][1,4]diazepine-2-carboxamide], `C[C@@H]1Cc2nn3c(c2CN1C(=O)Nc1cc(Cl)c(F)cc1F)C(=O)N(CC(F)F)CCC3` [Compound 078, (R)—N-(5-chloro-2,4-difluorophenyl)-10-(2,2-difluoroethyl)-3-methyl-11-oxo-1,3,4,7,8,9,10,11-octahydro-2H-pyrido[4′,3′:3,4]pyrazolo[1,5-a][1,4]diazepine-2-carboxamide] is higher in EC50: 1 to 100 nM for the first, 100 to 500 nM for the second.

`C[C@@H]1Cc2nn3c(c2CN1C(=O)Nc1ccc(F)c(Cl)c1)C(=O)N(CC(F)F)CCC3` [Compound 072, (3R)—N-(3-chloro-4-fluorophenyl)-10-(2,2-difluoroethyl)-3-methyl-11-oxo-1,3,4,7,8,9,10,11-octahydro-2H-pyrido[4′,3′:3,4]pyrazolo[1,5-a][1,4]diazepine-2-carboxamide] and `C[C@@H]1Cc2nn3c(c2CN1C(=O)Nc1ccc(F)c(Br)c1)C(=O)N(CC(F)F)CCC3` [Compound 074, (R)—N-(3-bromo-4-fluorophenyl)-10-(2,2-difluoroethyl)-3-methyl-11-oxo-1,3,4,7,8,9,10,11-octahydro-2H-pyrido[4′,3′:3,4]pyrazolo[1,5-a][1,4]diazepine-2-carboxamide] fall in the same range of EC50: 1 to 100 nM for the first, 1 to 100 nM for the second.

`C[C@@H]1Cc2nn3c(c2CN1C(=O)Nc1ccc(F)c(C(F)(F)F)c1)C(=O)N(CC(F)F)CCC3` [Compound 073, (R)-10-(2,2-difluoroethyl)-N-(4-fluoro-3-(trifluoromethyl)phenyl)-3-methyl-11-oxo-1,3,4,7,8,9,10,11-octahydro-2H-pyrido[4′,3′:3,4]pyrazolo[1,5-a][1,4]diazepine-2-carboxamide] and `Cc1cc(NC(=O)N2Cc3c(nn4c3C(=O)N(CC(F)F)CCC4)C[C@H]2C)ccc1F` [Compound 077, (R)-10-(2,2-difluoroethyl)-N-(4-fluoro-3-methylphenyl)-3-methyl-11-oxo-1,3,4,7,8,9,10,11-octahydro-2H-pyrido[4′,3′:3,4]pyrazolo[1,5-a][1,4]diazepine-2-carboxamide] fall in the same range of EC50: 1 to 100 nM for the first, 1 to 100 nM for the second.

`C[C@@H]1Cc2nn3c(c2CN1C(=O)Nc1ccnc(Br)c1F)C(=O)N(CC(F)F)CCC3` [Compound 075] and `C[C@@H]1Cc2nn3c(c2CN1C(=O)Nc1ccc(F)c(C#N)c1)C(=O)N(CC(F)F)CCC3` [Compound 076, (R)—N-(3-cyano-4-fluorophenyl)-10-(2,2-difluoroethyl)-3-methyl-11-oxo-1,3,4,7,8,9,10,11-octahydro-2H-pyrido[4′,3′:3,4]pyrazolo[1,5-a][1,4]diazepine-2-carboxamide] fall in the same range of EC50: 1 to 100 nM for the first, 1 to 100 nM for the second.

First: CN1CC(CO)(CC(F)F)Cn2nc3c(c2C1=O)CN(C(=O)Nc1ccc(F)c(Cl)c1)CC3 (centres unmarked) [Compound 091, N-(3-chloro-4-fluorophenyl)-8-(2,2-difluoroethyl)-8-(hydroxmethyl)-10-methyl-11-oxo-1,3,4,7,8,9,10,11-octahydro-2H-pyrido[4′,3′:3,4]pyrazolo[1,5-a][1,4]diazepine-2-carboxamide]
Second: CCCC(O)C1CN(C)C(=O)c2c3c(nn2C1)CCN(C(=O)Nc1ccc(F)c(Cl)c1)C3 (centres unmarked) [Compound 106, N-(3-chloro-4-fluoro-phenyl)-8-(1-hydroxybutyl)-10-methyl-1-oxo-1,3,4,7,8,9-hexahydropyrido[2,3]pyrazolo[2,4-b][1,4]diazepine-2-carboxamide]
The EC50 of the first is higher: 100 to 500 nM for the first, 1 to 100 nM for the second.

`CN1CC(CN)Cn2nc3c(c2C1=O)CN(C(=O)Nc1ccc(F)c(C(F)(F)F)c1)CC3` (centres unmarked) [Compound 093, 8-(aminomethyl)-N-[4-fluoro-3-(trifluoromethyl)phenyl]-10-methyl-11-oxo-1,3,4,7,8,9-hexahydropyrido[2,3]pyrazolo[2,4-b][1,4]diazepine-2-carboxamide] and `CNCC1CN(C)C(=O)c2c3c(nn2C1)CCN(C(=O)Nc1ccc(F)c(C(F)(F)F)c1)C3` (centres unmarked) [Compound 094, N-[4-fluoro-3-(trifluoromethyl)phenyl]-10-methyl-8-(methylaminomethyl)-11-oxo-1,3,4,7,8,9-hexahydropyrido[2,3]pyrazolo[2,4-b][1,4]diazepine-2-carboxamide] fall in the same range of EC50: 100 to 500 nM for the first, 100 to 500 nM for the second.

`CCC(O)C1CN(C)C(=O)c2c3c(nn2C1)CCN(C(=O)Nc1ccc(F)c(Br)c1)C3` [Compound 102_E1, (R*)—N-(3-bromo-4-fluorophenyl)-8-((S)-1-hydroxypropyl)-10-methyl-11-oxo-1,3,4,7,8,9,10,11-octahydro-2H-pyrido[4′,3′:3,4]pyrazolo[1,5-a][1,4]diazepine-2-carboxamide] and `CCC(O)C1CN(C)C(=O)c2c3c(nn2C1)CC(C)N(C(=O)Nc1ccc(F)c(Br)c1)C3` [Compound 109_D1, (3R,8 S*)—N-(3-bromo-4-fluorophenyl)-8-((R)-1-hydroxypropyl)-3,10-dimethyl-11-oxo-1,3,4,7,8,9,10,11-octahydro-2H-pyrido[4′,3′:3,4]pyrazolo[1,5-a][1,4]diazepine-2-carboxamide] fall in the same range of EC50: 1 to 100 nM for the first, 1 to 100 nM for the second.

`CCC(O)C1CN(C)C(=O)c2c3c(nn2C1)CC(C)N(C(=O)Nc1ccc(F)c(C(F)(F)F)c1)C3` [Compound 107_D1, (3R,8S*)—N-(4-fluoro-3-(trifluoromethyl)phenyl)-8-((R)-1-hydroxypropyl)-3,10-dimethyl-11-oxo-1,3,4,7,8,9,10,11-octahydro-2H-pyrido[4′,3′:3,4]pyrazolo[1,5-a][1,4] diazepine-2-carboxamide] and `CN1C/C=C\Cn2nc3c(c2C1=O)CN(C(=O)Nc1ccc(F)c(Cl)c1)CC3` [Compound 111, (Z)—N-(3-chloro-4-fluorophenyl)-11-methyl-12-oxo-3,4,7,10,11,12-hexahydropyrido[4′,3′:3,4]pyrazolo[1,5-a][1,4]diazocine-2 (1H)-carboxamide] fall in the same range of EC50: 1 to 100 nM for the first, 1 to 100 nM for the second.

Compared with `CN1CCC(C(=O)O)n2nc3c(c2C1=O)CN(C(=O)Nc1ccc(F)c(Cl)c1)CC3` (centres unmarked) [Compound 113, 2-((3-chloro-4-fluorophenyl)carbamoyl)-10-methyl-11-oxo-1,3,4,7,8,9,10,11-octahydro-2H-pyrido[4′,3′:3,4]pyrazolo[1,5-a][1,4]diazepine-7-carboxylic acid], `CN1CCC(CO)n2nc3c(c2C1=O)CN(C(=O)Nc1ccc(F)c(Cl)c1)CC3` (centres unmarked) [Compound 114, N-(3-chloro-4-fluorophenyl)-7-(hydroxymethyl)-10-methyl-11-oxo-1,3,4,7,8,9,10,11-octahydro-2H-pyrido[4′,3′:3,4]pyrazolo[1,5-a][1,4]diazepine-2-carboxamide] is lower in EC50: > 1000 nM for the first, 1 to 100 nM for the second.
